Experimental data as given in patent US20120237614A1, “PEPTIDE ABLE TO DISRUPT THE PROTEIN COMPLEX BETWEEN THE HIS273 MUTADED P53 PROTEIN AND THE ONCOSUPPRESSIVE P73 PROTEIN IN TUMOR CELLS AND THERAPEUTIC USES THEREOF” (priority 2009, published 2012).
Entries after “also recorded” stand apart in the source; their conditions may differ.

Assays:
[1] = tested on: MDA-MB-468 cells; test: Apoptotic tests (PARP and BAX expression, Western blot) after Adriamycin; type: cell-based, human; conditions: MDA-MB-468, 3 μM Adriamycin
Protocol: (§1) (A) MDA-MB-468 (5×10^5) cells have been transfected using a lipofectamine containing mixture, βgal expression vector, which normalizes transfection efficiency, and SIMPI peptide (20 μM). Total cellular lysates (1 mg), have been immunoprecipitated with antibodies directed against p73 and immunoglobulins (IgG). Immunoprecipitates and an aliquot (50 μg) of total lysate after 12% acrylamide gel electrophoretic run have been transferred on nitrocellulose membrane and labelled with antibodies shown in the figure. (B) MDA-MB-468 cells, have been transfected using SIMP1 and SIMP5,6. peptides. Successively, cells have been washed and stimulated with 3 μM Adriamycin. Total obtained lysates (30 μg) have been assayed for the expression of PARP and BAX apoptotic proteins. Lysate has been normalized by assaying γ-tubulin expression. (C-D). Transactivation tests have been carried out by transient transfection of H1299 cells using a mixture containing lipofectamine, SIMP1, SIMP5,6 indicated plasmids (20 μM each) together with pLUC-BAX reporter vector. To each reaction mixture an equal amount of […] expression vector was added, in order to normalize the transfection efficiency.
(§2) 50 μg of solubilised proteins have been separated by electrophoresis on 10 or 15% SDS-polyacrylamide gel. Western blot analysis has been carried out using anti-p53 primary antibodies (DO1 Calbiochem), rabbit anti-PARP, rabbit polyclonal anti-Bax, anti-p21 and anti-tubulin monoclonal antibodies (Calbiochem). Goat anti-mouse and goat anti-rabbit horse peroxidase conjugated secondary antibodies (Amersham) have been used for the expression analyses. Immunolabelled lanes have been detected using chemiluminescence analysis (Pierce).
To this end cell viability and apoptotic tests (FIG. 1B, FIG. 4 B-C) on MDA-MB468 breast carcinoma have been carried out.

[2] = biological target: T1, mutp53 His-273 protein (Homo sapiens, UniProt P04637, R273H); test: Dot immunobinding test with total cell extracts; type: binding; conditions: total extracts 1 mg, peptide on nitrocellulose membrane
T1 construct: Total extracts deriving from SKBR3, (His-175) HT29, (His-273) and H1299 (p53 free) tumour cells; endogenous in cells; host or cells: HT29 total cell extract
Protocol: (A) Total extracts deriving from SKBR3, (His-175) HT29, (His-273) and H1299 (p53 free) tumour cells have been incubated (1 mg) on SIMP1 and SIMPIKO peptide labelled nitrocellulose membrane and Dot Blot analysed. In (B) the membranes have been incubated with 20 μg of wild type WT GST-p53 purified protein or GST-p53 His-175, GST-p53-His-175, 74-298 or GST alone. In both experiments dots have been detected by labelling the membranes with anti-p53 (DO1) antibody
Nitrocellulose membranes have been cut, washed with water and blotted on the paper filters. The peptides at 250 mM concentration have been transferred on membrane. Labelled membrane has been washed for 10 min. with TBST buffer (10 mM Tris-HCl pH 7.4, 150 mM NaCl, 0.05% (v/v) Tween-20) and then blocked for 45 min with TBST/5% milk. Then the membranes have been incubated for 6 hours at 4° C. in shaker with 1 mg of total protein extract or 20 μg of GST fusion purified proteins. Successively the membranes have been washed with TBST buffer and decorated with anti-p53 antibody (DO1) as a primary antibody. As secondary antibody horse peroxidase conjugated goat antibody has been used. Immunolabelled lanes have been detected using chemiluminescence analysis (Pierce).
The membranes decorated with SIMP peptides also have been incubated with GST-p53 His175, GST p53His74-298, GST WTp53 fusion proteins, GST control.

[3] = tested on: HT29 cells; test: In vivo tumorigenicity test (xenograft of peptide transfected HT29 cells); conditions: naked mice, s.c. 5×10^5 peptide transfected cells/mouse, 5 weeks
Protocol: In order to assay SIMP1 in vivo antitumor activity nu/nu […] mice were administered subcutaneously with SIMP1, SIMP1KO and SIMP5M transfected HT29 cells (5.0×10^5 cells/mouse). Tumour growth has been monitored over 5 weeks.
Xenograft assays have been carried out by administration to naked mice subcutaneous injections containing 5×10^5 cells/mouse of SIMP1, SIMP1KO and SIMP5M peptide transfected colon and rectum tumour human cell line (nu/nu CD1 Charles River mice). The tumour growth together with animal body weight is monitored for 5 weeks in order to estimate the chronic toxicity
The experiments have been carried out by administration to naked mouse (nu/nu CD1 Charles River mice) subcutaneous injections containing 5×10^5 cells/mouse. The tumour growth has been monitored together with animal body weight for 5 weeks in order to estimate possible not occurred chronic toxic effects (FIG. 5).

[4] = biological target: T2, m-p53His-273/p73 complex (Homo sapiens, UniProt P04637, R273H); test: Coprecipitation (immunoprecipitation) test of the m-p53/p73 complex in MDA-MB-468 cells; type: cell-based; conditions: His-273 mutation, peptide 20 μM, anti-p73 immunoprecipitation
T2 construct: Total cellular lysates (1 mg), have been immunoprecipitated with antibodies directed against p73; endogenous in cells; host or cells: MDA-MB-468
Protocol: as §1
The cell extracts have been processed in a lysis buffer containing 50 mm Tris HCl pH 8, 100 mM NaCl, 10% glycerol, 1% Triton X-100, 1 mM EDTA, 100 mM NaF, MgCl2, 1 mM PMSF, protease and phosphatase inhibitors. Then extracts have been sonicated and centrifuged at 14.000 rpm for 10 min for the debris removal.
as §2, with “Goat anti-mouse and goat anti-rabbit horse peroxidase conjugated secondary antibodies (Amersham) have been used for the expression analyses.” left out, “(Pierce). […]” for “(Pierce).”
In order to evaluate the activity of SIMPI peptide and SIMP1KO and SIMP1M derivatives the ability in disrupting the oncogenic m-p53His-273/p73 complex has been analysed.

[5] = tested on: MDA-MB-468 cells (His-273 p53 mutation); test: Transactivation test (pLUC-BAX, pLUC-p21) in Adriamycin treated MDA-MB-468 cells; type: cell-based, human; conditions: MDA-MB-468, 3 μM Adriamycin 24 hours post-transfection, luciferase reporter
Protocol: MDA-MB-468 cells have been transfected using a mixture containing lipofectamine, pLUC-BAX plasmid, β-galactosidase expression vector, SIMP1 and SIMP control peptides. The cells, 24 hours post-transfection, have been treated with 3 μM Adriamycin.
MDA-MB-468 cells have been transfected using a mixture containing lipofectamine, pLUC-BAX plasmid, pLUC-p21, β-galactosidase expression vector, SIMP1 peptides and SIMP1M and SIMP1KO derived mutant thereof. The cells, 24 hours post-transfection, have been treated with 3 μM Adriamicyn and then processed.
SKBR3, HT-29, MDA-MB-468 cell lines have been transfected with Lipofectamine 2000 according to the supplier instructions (InVitrogen).
Cells (1.5×10^5) have been transiently transfected using SIMP peptides, expression plasmids and reporter constructs as internal controls for transfection efficiency. After the transfection, SKBR3, HT-29 and MDA-MB-468 have been incubated with 3 μM ADR over 24 hours. Cells have been washed with cold PBS and re-suspended in lysis buffer (Promega) and incubated for 10 min at room temp. Insoluble material has been centrifuged and luciferase activity has been determined using a commercial kit with a luminometer (Turner).

Question: “FQQSSTAKSATW (p73 SIMP (aa 131-142)) [SIMP1]” was tested. Which apoptotic response [1] did it give?
Answer: The apoptotic response was “increase the apoptotic response to chemotherapeutic agents”.

Question: And the apoptotic response ([1]; listed as SIMPI)?
Answer: Its apoptotic response is “increases the apoptotic response”.

Question: What about the “direct binding to mutp53 His-273 (dot blot, anti-p53 DO1)” value [2] of the same sequence?
Answer: The value was “binds directly the mutp53 His-273 protein”.

Question: And the “tumour growth (tumour size) in vivo” value [3]?
Answer: The value was “tumour growth is decreased; also recorded: meaningful reduction of the growth (tumour size)”.

Question: And the “disruption of m-p53 His-273/p73 protein complex (p73 bound m-p53 amount)” value [4]?
Answer: The value was “suitable to disrupt m-p53/p73 complexes in tumour cells containing his-273 mutation; also recorded: disrupt selectively m-p53/p73 complex”.

Question: What about the “disruption of m-p53 His-273/p73 protein complex (p73 bound m-p53 amount)” value ([4]; listed as SIMPI) of the same sequence?
Answer: The value was “disrupts mutated p53/p73 protein complex; also recorded: largely reduced”.

Question: And the “Adriamycin chemosensitivity / p73 transcription response” value [5]?
Answer: The value was “increases the Adriamycin sensitivity; also recorded: increase Adriamycin chemosensitivty; also recorded: increased p73 transcription response as an adriamycin response”.
